Patent US8785457B2 (Cellzome Limited, priority 2009, dated 2014)
Read-outs that look alike come from different tables or passages of the source.

Biological target: T1, PI3K delta (PI3 Kd) (Homo sapiens, UniProt O00329)
T1 construct: endogenous in cells; host or cells: Jurkat, clone E6-1 (ATCC TIB-152) cell lysate
Assay: kinobeads assay, PI3K delta
Type: binding
Conditions: kinobeads assay, read-out: Inhibition values (IC50) PI3Kd
Method in brief: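 IC50 values came from dose-response curves after test compound (1:3 series) competed with an immobilized phenylmorpholin-chromen affinity matrix for kinases in Jurkat lysate at 5 mg/mL protein. Eluted captured DNA-PK and PI3Kδ were measured by specific-antibody dot blot and infrared imaging. Buffer was Tris pH 7.4, NP40, MgCl2, NaCl, vanadate, DTT, NaF.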

T1 sequence (O00329 whole entry): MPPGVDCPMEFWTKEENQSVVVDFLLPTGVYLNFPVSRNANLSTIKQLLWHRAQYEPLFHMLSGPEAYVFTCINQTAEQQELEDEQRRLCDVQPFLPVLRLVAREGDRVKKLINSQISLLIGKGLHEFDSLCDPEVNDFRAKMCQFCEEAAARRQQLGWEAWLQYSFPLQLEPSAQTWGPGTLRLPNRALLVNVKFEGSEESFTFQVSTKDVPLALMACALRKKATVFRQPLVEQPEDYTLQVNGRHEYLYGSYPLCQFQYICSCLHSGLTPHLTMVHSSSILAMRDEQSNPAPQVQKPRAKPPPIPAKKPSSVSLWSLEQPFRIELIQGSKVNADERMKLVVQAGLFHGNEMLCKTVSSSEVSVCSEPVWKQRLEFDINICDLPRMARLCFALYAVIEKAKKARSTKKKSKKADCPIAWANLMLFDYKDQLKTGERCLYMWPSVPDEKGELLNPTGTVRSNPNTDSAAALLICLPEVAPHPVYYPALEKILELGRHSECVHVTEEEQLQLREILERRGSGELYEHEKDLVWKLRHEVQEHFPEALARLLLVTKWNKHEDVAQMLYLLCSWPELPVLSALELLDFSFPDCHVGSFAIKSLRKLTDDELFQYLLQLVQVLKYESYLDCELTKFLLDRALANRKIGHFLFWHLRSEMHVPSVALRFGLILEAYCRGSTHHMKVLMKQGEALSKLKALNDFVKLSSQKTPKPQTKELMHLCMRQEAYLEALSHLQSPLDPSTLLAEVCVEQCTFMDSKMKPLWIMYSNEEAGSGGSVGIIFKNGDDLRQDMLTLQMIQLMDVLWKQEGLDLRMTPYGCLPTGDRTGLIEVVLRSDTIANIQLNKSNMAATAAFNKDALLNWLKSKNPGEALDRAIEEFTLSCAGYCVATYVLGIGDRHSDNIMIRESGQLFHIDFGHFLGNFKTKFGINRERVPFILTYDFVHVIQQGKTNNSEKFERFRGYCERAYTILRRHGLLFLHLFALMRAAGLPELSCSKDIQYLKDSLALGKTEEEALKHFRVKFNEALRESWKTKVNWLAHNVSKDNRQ
T1 sequence (P27986 whole entry partner): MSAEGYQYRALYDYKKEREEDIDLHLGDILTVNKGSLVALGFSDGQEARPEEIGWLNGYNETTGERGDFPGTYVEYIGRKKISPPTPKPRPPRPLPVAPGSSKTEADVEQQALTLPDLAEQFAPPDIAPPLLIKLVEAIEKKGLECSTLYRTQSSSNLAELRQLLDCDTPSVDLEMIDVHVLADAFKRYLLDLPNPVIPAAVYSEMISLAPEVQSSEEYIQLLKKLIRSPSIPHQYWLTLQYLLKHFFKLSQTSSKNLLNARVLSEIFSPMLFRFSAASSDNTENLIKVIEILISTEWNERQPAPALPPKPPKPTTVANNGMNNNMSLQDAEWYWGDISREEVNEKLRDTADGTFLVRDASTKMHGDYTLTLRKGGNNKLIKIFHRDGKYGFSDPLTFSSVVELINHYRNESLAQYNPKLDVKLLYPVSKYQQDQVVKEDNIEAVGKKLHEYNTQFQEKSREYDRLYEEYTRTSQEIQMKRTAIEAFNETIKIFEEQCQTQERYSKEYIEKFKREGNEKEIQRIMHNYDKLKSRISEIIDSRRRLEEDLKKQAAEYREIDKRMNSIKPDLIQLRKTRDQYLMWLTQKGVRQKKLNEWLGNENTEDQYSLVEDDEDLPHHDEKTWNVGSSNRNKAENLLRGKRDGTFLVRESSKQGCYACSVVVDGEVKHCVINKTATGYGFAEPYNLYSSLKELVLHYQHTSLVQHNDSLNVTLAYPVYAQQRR

IC50 (Table 4) | IC50 (Table 6) | Compound
> 10 µM | > 10 µM | CCNC(=O)Nc1ccc(-c2nc3c(c(N4CCOC[C@@H]4C)n2)CN(Cc2ccc(F)cc2)C3)cc1 [Example 29, (S)-1-ethyl-3-(4-(6-(4-fluorobenzyl)-4-(3-methylmorpholino)-6,7-dihydro-5H-pyrrolo[3,4-d]pyrimidin-2-yl)phenyl)urea]
> 10 µM | > 10 µM | C[C@H]1COCCN1c1nc(-c2ccc(NC(=O)NC3CC3)cc2)nc2c1CN(CC1CC1)C2 [Example 30]
> 10 µM | > 10 µM | CCNC(=O)Nc1ccc(-c2nc3c(c(N4CCOC[C@@H]4C)n2)CN(S(C)(=O)=O)C3)cc1 [Example 32, (S)-1-ethyl-3-(4-(4-(3-methylmorpholino)-6-(methylsulfonyl)-6,7-dihydro-5H-pyrrolo[3,4-d]pyrimidin-2-yl)phenyl)urea]
> 10 µM | > 10 µM | CCN1Cc2nc(-c3ccc(NC(=O)NC4CC4)cc3)nc(N3CCOC[C@@H]3C)c2C1 [Example 36, (S)-1-cyclopropyl-3-(4-(6-ethyl-4-(3-methylmorpholino)-6,7-dihydro-5H-pyrrolo[3,4-d]pyrimidin-2-yl)phenyl)urea]
> 10 µM | > 10 µM | C[C@H]1COCCN1c1nc(-c2ccc(NC(=O)NC3CC3)cc2)nc2c1CN(C)C2 [Example 38, (S)-1-cyclopropyl-3-(4-(6-methyl-4-(3-methylmorpholino)-6,7-dihydro-5H-pyrrolo[3,4-d]pyrimidin-2-yl)phenyl)urea]
> 10 µM | > 10 µM | CCNC(=O)Nc1ccc(-c2nc3c(c(N4CCOC[C@@H]4C)n2)CN(CC)C3)cc1 [Example 39, (S)-1-ethyl-3-(4-(6-ethyl-4-(3-methylmorpholino)-6,7-dihydro-5H-pyrrolo[3,4-d]pyrimidin-2-yl)phenyl)urea]
> 10 µM | > 10 µM | C[C@H]1COCCN1c1nc(-c2ccc(NC(=O)NC3CC3)cc2)nc2c1CCN(CC(C)(C)C)C2 [Example 41, (S)-1-cyclopropyl-3-(4-(4-(3-methylmorpholino)-7-neopentyl-5,6,7,8-tetrahydropyrido[3,4-d]pyrimidin-2-yl)phenyl)urea]
> 10 µM | > 10 µM | CC(C)CN1CCc2c(nc(-c3ccc(NC(=O)NC4CC4)cc3)nc2N2CCOC[C@@H]2C)C1 [Example 42, (S)-1-cyclopropyl-3-(4-(7-isobutyl-4-(3-methylmorpholino)-5,6,7,8-tetrahydropyrido[3,4-d]pyrimidin-2-yl)phenyl)urea]
> 10 µM | > 10 µM | CC(C)C(=O)N1Cc2nc(-c3ccc(NC(=O)NC4CC4)cc3)nc(N3CCOC[C@@H]3C)c2C1 [Example 44, (S)-1-cyclopropyl-3-(4-(6-isobutyryl-4-(3-methylmorpholino)-6,7-dihydro-5H-pyrrolo[3,4-d]pyrimidin-2-yl)phenyl)urea]
> 10 µM | > 10 µM | C[C@H]1COCCN1c1nc(-c2ccc(NC(=O)NC3CC3)cc2)nc2c1CN(C(=O)C(C)(C)C)C2 [Example 45, (S)-1-cyclopropyl-3-(4-(4-(3-methylmorpholino)-6-pivaloyl-6,7-dihydro-5H-pyrrolo[3,4-d]pyrimidin-2-yl)phenyl)urea]
> 10 µM | > 10 µM | CC(C)N1Cc2nc(-c3ccc(NC(=O)NC4CC4)cc3)nc(N3CCOC[C@@H]3C)c2C1 [Example 46, (S)-1-cyclopropyl-3-(4-(6-isopropyl-4-(3-methylmorpholino)-6,7-dihydro-5H-pyrrolo[3,4-d]pyrimidin-2-yl)phenyl)urea]
1 to 10 µM | 1 to 10 µM | CNC(=O)Nc1ccc(-c2nc3c(c(N4CCOC[C@@H]4C)n2)CN(CC2CC2)C3)cc1 [Example 47, (S)-1-(4-(6-(cyclopropylmethyl)-4-(3-methylmorpholino)-6,7-dihydro-5H-pyrrolo[3,4-d]pyrimidin-2-yl)phenyl)-3-methylurea]
1 to 10 µM | 1 to 10 µM | C[C@H]1COCCN1c1nc(-c2ccc(NC(N)=O)cc2)nc2c1CN(CC1CC1)C2 [Example 48, (S)-1-(4-(6-(cyclopropylmethyl)-4-(3-methylmorpholino)-6,7-dihydro-5H-pyrrolo[3,4-d]pyrimidin-2-yl)phenyl)urea]
> 10 µM | > 10 µM | CCCNC(=O)Nc1ccc(-c2nc3c(c(N4CCOC[C@@H]4C)n2)CN(CC2CC2)C3)cc1 [Example 49, (S)-1-(4-(6-(cyclopropylmethyl)-4-(3-methylmorpholino)-6,7-dihydro-5H-pyrrolo[3,4-d]pyrimidin-2-yl)phenyl)-3-propylurea]
> 10 µM | > 10 µM | CC(C)NC(=O)Nc1ccc(-c2nc3c(c(N4CCOC[C@@H]4C)n2)CN(CC2CC2)C3)cc1 [Example 50, (S)-1-(4-(6-(cyclopropylmethyl)-4-(3-methylmorpholino)-6,7-dihydro-5H-pyrrolo[3,4-d]pyrimidin-2-yl)phenyl)-3-isopropylurea]

Further lines, the molecule ahead of its results:

Compound | IC50 (Table 4) | IC50 (Table 6)
CCNC(=O)Nc1ccc(-c2nc3c(c(N4CCOC[C@@H]4C)n2)CN(C=O)C3)cc1 [Example 8, (S)-1-ethyl-3-(4-(6-formyl-4-(3-methylmorpholino)-6,7-dihydro-5H-pyrrolo[3,4-d]pyrimidin-2-yl)phenyl)urea] | > 10 µM | > 10 µM
C[C@H]1COCCN1c1nc(-c2ccc(NC(=O)NC3CC3)cc2)nc2c1CNCC2 [Example 11, (S)-1-cyclopropyl-3-(4-(4-(3-methylmorpholino)-5,6,7,8-tetrahydropyrido[4,3-d]pyrimidin-2-yl)phenyl)urea] | > 10 µM | > 10 µM
CCNC(=O)Nc1ccc(-c2nc3c(c(N4CCOC[C@@H]4C)n2)CNCC3)cc1 [Example 12, (S)-1-ethyl-3-(4-(4-(3-methylmorpholino)-5,6,7,8-tetrahydropyrido[4,3-d]pyrimidin-2-yl)phenyl)urea] | > 10 µM | > 10 µM
CCNC(=O)Nc1ccc(-c2nc3c(c(N4CCOC[C@@H]4C)n2)CCNC3)cc1 [Example 13, (S)-1-ethyl-3-(4-(4-(3-methylmorpholino)-5,6,7,8-tetrahydropyrido[3,4-d]pyrimidin-2yl)phenyl)urea] | > 10 µM | > 10 µM
C[C@H]1COCCN1c1nc(-c2ccc(NC(=O)NC3CC3)cc2)nc2c1CCNC2 [Example 15, (S)-1-cyclopropyl-3-(4-(4-(3-methylmorpholino)-5,6,7,8-tetrahydropyrido[3,4-d]pyrimidin-2-yl)phenyl)urea] | > 10 µM | > 10 µM
CNC(=O)Nc1ccc(-c2nc3c(c(N4CCOC[C@@H]4C)n2)CCNC3)cc1 [Example 16, (S)-1-methyl-3-(4-(4-(3-methylmorpholino)-5,6,7,8-tetrahydropyrido[3,4-d]pyrimidin-2-yl)phenyl)urea] | > 10 µM | > 10 µM
C[C@H]1COCCN1c1nc(-c2ccc(NC(=O)NC3CC3)cc2)nc2c1CN(C(=O)C1CC1)C2 [Example 17, (S)-1-(4-(6-(cyclopropanecarbonyl)-4-(3-methylmorpholino)-6,7-dihydro-5H-pyrrolo[3,4-d]pyrimidin-2-yl)phenyl)-3-cyclopropylurea] | > 10 µM | > 10 µM
CCNC(=O)Nc1ccc(-c2nc3c(c(N4CCOC[C@@H]4C)n2)CN(C(C)=O)C3)cc1 [Example 18, (S)-1-(4-(6-acetyl-4-(3-methylmorpholino)-6,7-dihydro-5H-pyrrolo[3,4-d]pyrimidin-2-yl)phenyl)-3-ethylurea] | 1 to 10 µM | 1 to 10 µM
CCNC(=O)Nc1ccc(-c2nc3c(c(N4CCOC[C@@H]4C)n2)CN(C(=O)c2ccc(F)cc2)C3)cc1 [Example 19, (S)-1-ethyl-3-(4-(6-(4-fluorobenzoyl)-4-(3-methylmorpholino)-6,7-dihydro-5H-pyrrolo[3,4-d]pyrimidin-2-yl)phenyl)urea] | > 10 µM | > 10 µM
CC(=O)N1Cc2nc(-c3ccc(NC(=O)NC4CC4)cc3)nc(N3CCOC[C@@H]3C)c2C1 [Example 20, (S)-1-(4-(6-acetyl-4-(3-methylmorpholino)-6,7-dihydro-5H-pyrrolo[3,4-d]pyrimidin-2-yl)phenyl)-3-cyclopropylurea] | > 10 µM | > 10 µM
CCNC(=O)Nc1ccc(-c2nc3c(c(N4CCOC[C@@H]4C)n2)CN(C(=O)C(C)C)C3)cc1 [Example 21, (S)-1-ethyl-3-(4-(6-isobutyryl-4-(3-methylmorpholino)-6,7-dihydro-5H-pyrrolo[3,4-d]pyrimidin-2-yl)phenyl)urea] | 1 to 10 µM | 1 to 10 µM
CCNC(=O)Nc1ccc(-c2nc3c(c(N4CCOC[C@@H]4C)n2)CN(C(=O)C2CC2)C3)cc1 [Example 23, (S)-1-(4-(6-(cyclopropanecarbonyl)-4-(3-methylmorpholino)-6,7-dihydro-5H-pyrrolo[3,4-d]pyrimidin-2-yl)phenyl)-3-ethylurea] | 1 to 10 µM | 1 to 10 µM
CCNC(=O)Nc1ccc(-c2nc3c(c(N4CCOC[C@@H]4C)n2)CCN(C(=O)c2ccc(F)cc2)C3)cc1 [Example 24, (S)-1-ethyl-3-(4-(7-(4-fluorobenzoyl)-4-(3-methylmorpholino)-5,6,7,8-tetrahydropyrido[3,4-d]pyrimidin-2-yl)phenyl)urea] | > 10 µM | > 10 µM
C[C@H]1COCCN1c1nc(-c2ccc(NC(=O)NC3CC3)cc2)nc2c1CN(CC(C)(C)C)C2 [Example 25, (S)-1-cyclopropyl-3-(4-(4-(3-methylmorpholino)-6-neopentyl-6,7-dihydro-5H-pyrrolo[3,4-d]pyrimidin-2-yl)phenyl)urea] | > 10 µM | > 10 µM
CCNC(=O)Nc1ccc(-c2nc3c(c(N4CCOC[C@@H]4C)n2)CN(CC2CC2)C3)cc1 [Example 28, (S)-1-(4-(6-(cyclopropylmethyl)-4-(3-methylmorpholino)-6,7-dihydro-5H-pyrrolo[3,4-d]pyrimidin-2-yl)phenyl)-3-ethylurea] | > 10 µM | > 10 µM
